The test system of this test is metastatic melanoma. In words: Clinical course of patient ZH311 after NY-ESO-1 vaccination and Ipilimumab. It is filed as in vivo. The text has this:
A patient ZH311 was diagnosed in 2001 with metastatic melanoma. The tumor expressed NY-ESO-1 and was serum-positive for NY-ESO-1.
Survival time after treatment with Ipilimumab was 3 years.

For the substance “Ipilimumab: anti-CTLA4 antagonistic antibody”, the “survival time after treatment with Ipilimumab” value (patient ZH311) was 3 years. Where the note is “patient ZH311, Ipilimumab starting in 2007 after NY-ESO-1 vaccination”, the course of disease entry is reported as “stabilized course of disease”. For the setting “patient ZH311, since diagnosis 2001, NY-ESO-1 vaccination then Ipilimumab, peer group median 10 months”, the overall survival time worked out at 10 years.

For the origin of these results see US20180353603A1, “Combination therapy including tumor associated antigen binding antibodies” (CT Atlantic Ltd., priority 2011, published 2018).
